Two compounds from PMC5376172, “Identification and use of an alkane transporter plug-in for applications in biocatalysis and whole-cell biosensing of alkanes” (Scientific Reports, 2014) can be followed below.

Assay [1] concerns the target T1, AlkL (Ectopseudomonas oleovorans, UniProt Q00595).
T1 construct: full-length, untagged, from pSTBFGL (palkB promoter) in E. coli DH1 / HB101 with AlkBFGT
T1 sequence (Q00595 28-230): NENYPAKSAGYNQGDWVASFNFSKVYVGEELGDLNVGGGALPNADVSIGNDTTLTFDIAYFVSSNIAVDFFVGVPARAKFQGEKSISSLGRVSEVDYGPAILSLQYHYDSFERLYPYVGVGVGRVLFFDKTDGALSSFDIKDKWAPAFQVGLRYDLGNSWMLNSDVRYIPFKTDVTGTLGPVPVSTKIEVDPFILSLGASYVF
The assay is described as follows: whole-cell alkane uptake by GC and coupled AlkB oxidation, with and without alkL. The class given is cell-based. The settings on record: transport into E. coli; 15 min incubation for direct uptake; whole cells.

The target in assay [2] is T2, alkane hydroxylase complex (AlkB, AlkG, AlkT) (Ectopseudomonas oleovorans, UniProt P12691).
T2 construct: integral membrane AlkB with electron transfer partners, co-expressed from pSTBFG(L) in whole E. coli cells; alkF also on plasmid; with Rubredoxin-2; Rubredoxin-NAD(+) reductase
T2 sequence (P12691 1-401): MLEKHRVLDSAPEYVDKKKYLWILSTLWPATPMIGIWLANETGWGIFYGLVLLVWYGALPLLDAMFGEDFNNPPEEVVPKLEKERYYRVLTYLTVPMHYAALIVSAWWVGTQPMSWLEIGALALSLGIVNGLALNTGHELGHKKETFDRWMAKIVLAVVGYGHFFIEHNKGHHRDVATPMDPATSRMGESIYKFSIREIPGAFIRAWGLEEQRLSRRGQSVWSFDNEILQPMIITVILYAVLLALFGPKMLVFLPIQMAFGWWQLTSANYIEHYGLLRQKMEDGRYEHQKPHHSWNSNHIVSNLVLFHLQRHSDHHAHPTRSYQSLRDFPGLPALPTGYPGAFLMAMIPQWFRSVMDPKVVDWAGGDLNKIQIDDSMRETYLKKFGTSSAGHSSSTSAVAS
T2 sequence (P00272 2-173 partner): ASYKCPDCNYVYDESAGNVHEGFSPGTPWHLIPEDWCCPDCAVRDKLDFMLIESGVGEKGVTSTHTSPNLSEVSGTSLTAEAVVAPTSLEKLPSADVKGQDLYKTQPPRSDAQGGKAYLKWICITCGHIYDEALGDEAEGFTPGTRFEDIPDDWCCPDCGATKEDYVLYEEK
Put plainly: whole-cell bio-oxidation, GC-FID of products. The class given is cell-based. The following applies: E. coli DH1 / HB101 whole cells; DCPK inducer.

Structures are written as SMILES.

As to `CCCCCCCCCCCC` [n-dodecane], the “whole-cell alkane uptake by GC and coupled AlkB oxidation, with and without alkL” value in assay [1] is listed as “E.coli strains expressing alkL were also tested for a direct measurement of n-dodecane uptake”.

With `CCCCCCCC` [n-octane], the “whole-cell bio-oxidation, GC-FID of products” value in assay [2] is “Oxidised products of n-octane were detected in all host cells containing either pSTBFG or pSTBFGL”.
